Series [1] deals with T1, CYP2C9 (Homo sapiens, UniProt P11712). The series is classed as biochemical. Particulars: for Modulation of CYP2C9 activity in visual high-throughput screen: clinical drugs 10 μmol/L, DDAM 10 μmol/L, HLM, 96-well microplate; for Concentration-dependent inhibitory effect toward CYP2C9: 0.1, 0.5, 1, 10 and 20 μmol/L, DDAM, Fig. 4B.
For series [2], the system named is CYP2J2 in HeLa and HepG2 cells. Nature of the series: Confocal fluorescence imaging of CYP2J2 activity by MXMB in living cells. The settings on record: Fig. S13. The series is classed as cell-based, human.
Series [3] concerns the target T1, CYP2C9. Particulars: DDAM 10 μmol/L, Fig. S6.

T1 sequence (P11712 whole entry): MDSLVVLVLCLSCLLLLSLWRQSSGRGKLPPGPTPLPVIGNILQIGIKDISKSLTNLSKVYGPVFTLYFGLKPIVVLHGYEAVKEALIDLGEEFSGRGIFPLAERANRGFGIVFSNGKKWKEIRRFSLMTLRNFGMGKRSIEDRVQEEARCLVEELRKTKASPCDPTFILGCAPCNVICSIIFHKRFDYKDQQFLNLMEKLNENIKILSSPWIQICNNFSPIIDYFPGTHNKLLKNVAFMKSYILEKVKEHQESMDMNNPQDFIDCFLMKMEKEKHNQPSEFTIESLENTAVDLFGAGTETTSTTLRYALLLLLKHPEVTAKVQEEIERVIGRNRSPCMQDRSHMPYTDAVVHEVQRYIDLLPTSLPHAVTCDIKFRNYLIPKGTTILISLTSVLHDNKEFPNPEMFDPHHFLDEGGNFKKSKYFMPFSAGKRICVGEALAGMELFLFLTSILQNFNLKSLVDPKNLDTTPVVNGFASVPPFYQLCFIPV

As to `CCCCCCCCCCCc1cc(=O)c2ccccc2n1C` [1-methyl-2-undecyl-4(1H) quinolone], at CYP2C9 [1] (DDAM fluorescence assay, pre-HPLC fractions), the “Inhibitor of CYP2C9 identified from E. rutaecarpa extract” value was “novel inhibitor”.

As for `C#C[C@]1(O)CC[C@H]2[C@@H]3CCC4=Cc5oncc5C[C@]4(C)[C@H]3CC[C@@]21C` [danazol], in series [2], the “Effect of pre-treatment on intracellular fluorescence of MXMB” value is “remarkable suppression of intracellular fluorescence”.

With `Nc1ccc(S(=O)(=O)c2ccc(N)cc2)cc1` [dapsone], the “Modulation of CYP2C9 activity in visual high-throughput screen” value (“Modulation of CYP2C9 activity” for short) at CYP2C9 [1] is on record as “activators”.

Turning to `NCCc1ccc(O)c(O)c1` [dopamine], on CYP2C9 [1], the “Modulation of CYP2C9 activity” value was “activators”.

Regarding `C[C@]12CC[C@@H]3c4ccc(O)cc4CC[C@H]3[C@@H]1CC[C@@H]2O` [estradiol], at CYP2C9 [1], the “Modulation of CYP2C9 activity” value was “activators”.

Regarding `Cc1c(OCC(F)(F)F)ccnc1C[S+]([O-])c1nc2ccccc2[nH]1` (stereo not shown) [lansoprazole], on CYP2C9 [1], the “Modulation of CYP2C9 activity” value is “activators”.

As for `COC(=O)Nc1nc2ccc(C(=O)c3ccccc3)cc2[nH]1` [mebendazole], the “Modulation of CYP2C9 activity” value at CYP2C9 [1] is “activators”.

For the compound `Clc1ccc(COC(Cn2ccnc2)c2ccc(Cl)cc2Cl)c(Cl)c1` (stereo not shown) [miconazole], on CYP2C9 [1], the “Concentration-dependent inhibitory effect toward CYP2C9” value is on record as “significant inhibitory effect” and the “Modulation of CYP2C9 activity” value is “strong inhibitors”.

As to `COc1ccc2[nH]c([S+]([O-])Cc3ncc(C)c(OC)c3C)nc2c1` (stereo not shown) [omeprazole], on CYP2C9 [1], the “Modulation of CYP2C9 activity” value is “activators”.

On to `COc1ccnc(C[S+]([O-])c2nc3ccc(OC(F)F)cc3[nH]2)c1OC` (stereo not shown) [pantoprazole], for which, at CYP2C9 [1], the “Modulation of CYP2C9 activity” value is recorded as “activators”.

As for `O=C(c1ccc(OCCN2CCCCC2)cc1)c1c(-c2ccc(O)cc2)sc2cc(O)ccc12` [raloxifene], on CYP2C9 [1], the “Concentration-dependent inhibitory effect toward CYP2C9” value is “significant inhibitory effect” and the “Modulation of CYP2C9 activity” value was “strong inhibitors”.

For `Nc1ccc(S(=O)(=O)Nc2ccnn2-c2ccccc2)cc1` [sulfaphenazole], on CYP2C9 [1], the “Concentration-dependent inhibitory effect toward CYP2C9” value was “significant inhibitory effect” and the “Modulation of CYP2C9 activity” value is “strong inhibitors”. Further, the “Effect on demethylation of DDAM” value at CYP2C9 [3] is “inhibited”.

The record behind these values is article PMC9279627 (Acta Pharmaceutica Sinica. B, 2021).
